Results as given in ChEMBL document CHEMBL1122237, “4,5,6,7-Tetrahydroisothiazolo[5,4-c]pyridin-3-ol and related analogues of THIP. Synthesis and biological activity” (J Med Chem, 1983).
The source made the active and inactive calls. The rule behind the calls is not given here.

Experiments:
GABA transporter [1] = biological target: T1, GABA transporter (Rattus norvegicus, UniProt P31647+P23978+P31646+P48056); assay: In vitro effect on GABA uptake in a crude preparation of synaptosomes from rat brain; assay type: functional, subcellular
[2] = I/U ratio for neutral amino acids; assay type: functional
[3] = biological target: Gamma-aminobutyric acid receptor subunit gamma-1 (Rattus norvegicus, UniProt P23574); assay: In vitro affinity for GABA binding sites on purified synaptic membranes from rat brain
Felis catus [4] = organism: Felis catus; assay: In vitro effect of GABA enhancement on single neurons in the cat spinal cord;; assay type: functional, organism-based
GABA transporter [5] = biological target: T1, GABA transporter; assay type: functional, subcellular, Brain
Description: In vitro effect on GABA uptake in a crude preparation of synaptosomes from rat brain.

Felis catus [6] = organism: Felis catus; assay: In vitro effect of glycine antagonism on single neurons in the cat spinal cord; Glycine antagonists are indicated by the Delta symbol.; assay type: functional, organism-based; settings: filed as antagonist
Felis catus [7] = organism: Felis catus; assay: In vitro effect of Gamma-aminobutyric acid enhancement on single neurons of cat spinal cord (No significant activity); assay type: functional
[8] = biological target: GABA-A receptor; anion channel
Description: In vitro affinity for GABA binding sites on purified synaptic membranes from rat brain.

[9] = I/U ratio for neutral amino acids.; assay type: functional
Felis catus [10] = organism: Felis catus; assay: In vitro effect of Gamma-aminobutyric acid enhancement on single neurons of cat spinal cord; assay type: functional
Felis catus [11] = organism: Felis catus; assay: In vitro effect of glycine antagonism on single neurons of cat spinal cord; Glycine antagonists are indicated by Delta symbol.; assay type: functional, organism-based; settings: filed as antagonist
Felis catus [12] = organism: Felis catus; assay: In vitro effect of Gamma-aminobutyric acid enhancement on single neurons of cat spinal cord (ND = no data, No significant activity); assay type: functional
[13] = biological target: T2, GABA-A receptor; anion channel (Homo sapiens) (UniProt P14867+P47870+P18507+P28472+P48169+Q99928+Q9UN88+P34903+O00591+O14764+Q8N1C3+P18505+P78334+P47869+P31644+Q16445); settings: Felis catus; Spinal cord; filed as agonist
[14] = biological target: T2, GABA-A receptor; anion channel (Homo sapiens); assay: In vitro effect on Gamma-aminobutyric acid agonism on single neurons of cat spinal cord (- is less active than GABA); assay type: functional, tissue-based; settings: Felis catus, filed as partial agonist, target entry is the homologue from another species

Sequence of Gamma-aminobutyric acid receptor subunit gamma-1 (P23574 whole entry): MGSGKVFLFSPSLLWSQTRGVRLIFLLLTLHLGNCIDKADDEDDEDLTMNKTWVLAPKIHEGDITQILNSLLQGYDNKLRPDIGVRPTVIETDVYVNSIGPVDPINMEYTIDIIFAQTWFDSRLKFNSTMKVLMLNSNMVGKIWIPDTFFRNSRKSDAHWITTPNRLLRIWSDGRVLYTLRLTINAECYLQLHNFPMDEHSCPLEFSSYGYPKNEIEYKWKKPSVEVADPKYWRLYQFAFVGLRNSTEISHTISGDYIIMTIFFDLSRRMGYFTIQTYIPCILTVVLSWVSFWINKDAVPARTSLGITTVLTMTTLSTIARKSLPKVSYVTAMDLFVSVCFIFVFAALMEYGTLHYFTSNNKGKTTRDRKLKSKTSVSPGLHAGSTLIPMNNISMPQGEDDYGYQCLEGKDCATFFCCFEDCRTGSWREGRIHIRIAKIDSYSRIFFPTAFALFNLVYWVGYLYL
Description for physchem: Dissociation constant (pKa)

Row | SMILES | pKa (physchem) | IC50 (GABA transporter [5]) [µM] | IC50 [8] [µM] | Ratio [9] | other results
1 | COc1noc2c1CCNC2 | 7.1 |  |  |  | 
2 | O=C(O)N1CCc2onc(O)c2CC1 | 5.6 |  |  |  | 
3 | COC(=O)N1CCc2snc(O)c2CC1 | 7.6 |  |  |  | 
4 | Oc1noc2c1CNCC2 |  |  |  |  | IC50 (GABA transporter [1]): 160 µM; Ratio [2]: 2500; IC50 [3]: 72 µM; GABA enhancement (Felis catus [4]): Active
5 | Oc1noc2c1CCNCC2 | 4.8 | > 500 | 15 | 4000 | Glycine antagonism (Felis catus [6]): Antagonist; GABA enhancement (Felis catus [7]): inactive
6 | Oc1nsc2c1CNCC2 | 6.1 | 230 | > 100 | 63 | GABA enhancement (Felis catus [10]): Active
7 | COC(=O)N1CCc2c(O)noc2C1 | 5.3 |  |  |  | 
8 | COC(=O)N1CCc2c(O)nsc2C1 | 7.3 |  |  |  | 
9 | Oc1nsc2c1CCNCC2 |  | 400 | 31 | 200 | Glycine antagonism (Felis catus [11]): Antagonist; GABA enhancement (Felis catus [12]): inactive
10 | NCCCC(=O)O |  |  |  |  | GABA agonism [13]: Agonist
11 | COC(=O)N1CCc2snc(O)c2C1 | 7.4 |  |  |  | 
12 | COc1noc2c1CNCC2 | 7.7 |  |  |  | 
13 | Oc1nsc2c1CCNC2 | 6.1 | 220 | 42 | 16 | GABA agonism [14]: Partial agonist
